Source: BindingDB's records for patent US20240025892 (The General Hospital, 2024)

Target: Serine/threonine-protein kinase SIK2 (Homo sapiens, UniProt Q9H0K1)
Test: In Vitro SIK2 Kinase Assay
Protocol: Assays were performed in base reaction buffer (20 mM Hepes (pH 7.5), 10 mM MgCl2, 1 mM EGTA, 0.02% Brij35, 0.02 mg/mL BSA, 0.1 mM Na3VO4, 2 mM DTT, 1% DMSO). Compounds were dissolved in 100% DMSO in a 10 mM stock. Serial dilution was conducted by Integra Viaflo Assist in DMSO. […] The substrate used was pAMARA at a concentration of 0.2 mg/mL. Kinase assays were supplemented with 2 mM Mn2+, and 1 μM ATP was added. Assays were performed for 20 minutes at room temperature, after which time 33P-ATP (10 μCi/μL) was added followed by incubation for another 120 minutes at room temperature. Thereafter, radioactivity incorporated into the […] peptide substrate was detected by filter-binding method. Kinase activity data were expressed as the percent remaining kinase activity in test samples compared to DMSO reactions. IC50 values and curve fits were obtained using Prism (GraphPad Software).

Sequence of Serine/threonine-protein kinase SIK2 (Q9H0K1 whole entry): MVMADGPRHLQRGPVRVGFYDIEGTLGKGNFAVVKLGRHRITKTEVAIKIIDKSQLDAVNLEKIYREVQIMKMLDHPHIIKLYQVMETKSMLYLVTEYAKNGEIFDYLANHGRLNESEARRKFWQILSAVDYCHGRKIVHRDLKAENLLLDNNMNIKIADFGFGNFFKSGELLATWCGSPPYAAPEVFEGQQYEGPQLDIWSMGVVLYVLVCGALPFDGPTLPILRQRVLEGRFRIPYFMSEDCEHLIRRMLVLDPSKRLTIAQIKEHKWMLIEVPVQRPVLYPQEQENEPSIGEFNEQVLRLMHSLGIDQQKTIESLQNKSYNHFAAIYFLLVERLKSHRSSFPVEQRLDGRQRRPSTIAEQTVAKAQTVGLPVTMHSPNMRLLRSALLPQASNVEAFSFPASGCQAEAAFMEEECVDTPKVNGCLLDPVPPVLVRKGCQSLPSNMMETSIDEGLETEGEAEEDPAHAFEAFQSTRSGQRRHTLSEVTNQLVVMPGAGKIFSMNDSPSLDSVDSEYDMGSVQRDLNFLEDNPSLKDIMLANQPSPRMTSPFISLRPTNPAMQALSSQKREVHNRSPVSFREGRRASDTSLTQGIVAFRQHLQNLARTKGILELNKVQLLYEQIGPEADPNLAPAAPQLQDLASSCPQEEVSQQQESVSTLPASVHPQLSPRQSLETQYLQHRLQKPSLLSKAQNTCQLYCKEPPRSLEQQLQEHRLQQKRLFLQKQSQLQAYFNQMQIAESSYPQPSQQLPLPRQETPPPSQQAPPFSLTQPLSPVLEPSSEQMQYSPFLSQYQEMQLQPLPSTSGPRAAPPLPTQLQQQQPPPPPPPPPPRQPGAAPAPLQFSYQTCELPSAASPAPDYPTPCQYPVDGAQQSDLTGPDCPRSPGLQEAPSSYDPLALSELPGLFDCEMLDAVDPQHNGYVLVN

**Q.** `N#Cc1ccc(-n2cnc3cc(C(=O)NCc4cccnc4)ccc32)cc1` [US20240025892, Example 32] was tested. Which IC50 did it give?
**A.** 148 nM
